Laboratory results reported in patent US4831049A, “Pyrrolizidine compounds, and their use as antiarrhythmic agents” (Suntory Limited, priority 1984, dated 1989).

What was measured:
[1] = system: ventricular flutter and fibrillation; experiment: Antiarrhythmic activity: prevention of ventricular flutter and fibrillation in mice caused to inhale chloroform; type: in vivo, male mice of ddy strain; settings: for ED50: Mus musculus, sc, 0.5 h, subcutaneous, 30 minutes before chloroform inhalation, Litchfield and Wilcoxon, 95% confidence limit in parentheses
Experimental: In accordance with the method described by J. W. Lawson [Journal of pharmacology and Experimental Therapeutics, 160, 22, (1966)], male mice of ddy strain were caused to inhale chloroform and when respiration was arrested, electrocardiography was performed to observe the ventricular flutter and fibrillation. These abnormalities of the cardiac ventricle are prevented if an antiarrhythmic agent is previously administered. Several different doses of the compound of this invention were subctaneously administered to mice in group of 29 to 40 animals and, after an interval of 30 minutes, the animals were caused to inhale chloroform. The prophylactic effects of these doses on ventricular flutter and fibrillation were estimated and the 50% effective dose (ED50) and its 95% confidence limit were calculated by the method of Litchfield and Wilcoxon [Journal of Pharmacology and Experimental Therapeutics 96, 99, (1949)].

[2] = 50% lethal dose (LD50) by the up and down method; therapeutic index; type: in vivo; settings: mouse, in vivo; male mice, bodyweight 18 to 22 g; up and down method
male mice = experiment: as above; type: in vivo; settings: for Therapeutic index: ratio of LD50 to ED50

SMILES | ED50 [1] [mg/kg] | LD50 [2] [mg/kg] | Therapeutic index (male mice) | antiarrhythmic activity relative to the racemic compound ([1]; versus racemic compound [(±)-compound]) | toxicity relative to the racemic compound (male mice; in words, versus racemic compound) | therapeutic index, in words (male mice; versus racemic compound)
Cc1cccc(C)c1NC(=O)[C@@H](C)C12CCCN1CCC2 [(2S)(+)-SUN3341, N-(2,6-dimethylphenyl)-2-(8-pyrrolizidine)propionamide] | 24 | 79.3 | 3.3 | – | – | –
Cc1ccc(NC(=O)C(C)C23CCCN2CCC3)cc1 (stereo not drawn) | 115 | 400 | 3.4 | – | – | –
Cc1cccc(C)c1NC(=O)C(c1ccccc1)C12CCCN1CCC2 (stereo not drawn) | 3.1 | 22 | 7.1 | – | – | –
Cc1cccc(C)c1NC(=O)[C@H](C)C12CCCN1CCC2 [(2R)(-)SUN3341, N-(2,6-dimethylphenyl)-2-(8-pyrrolizidine)propionamide] | 2.6 | 67.6 | 26.0 | approximately 9 times | comparable to the racemic compound in toxicity | remarkably improved therapeutic index
Cc1cccc(C)c1NC(=O)C(C)C12CCCN1CCC2 (stereo not drawn) [N-(2,6-dimethylphenyl)-2-(8-pyrrolizidine)propionamide] | 23 | 92.1 | 4.0 | – | – | –
CCC(C(=O)Nc1c(C)cccc1C)C12CCCN1CCC2 (stereo not drawn) | 8.5 | 26 | 3.1 | – | – | –
